# Data reported in paper PMC6379368, “Extracellular and intracellular small-molecule galectin-3 inhibitors” (Scientific Reports, 2019).
# What was measured:
# JIMT-1 cells = test: MTT cell viability assay, JIMT-1; assay type: cell-based; conditions: JIMT-1, 72 hours, 0.04–40 µM for 1 and 2, 0.04–20 µM for 3
# Experimental: (§1) The MTT (3-[4,5-dimethylthiazol-2-yl]−2,5-diphenyltetrazolium bromide) assays were performed as previously described. […] The cells were incubated for 24 hours before addition of galectin-3 inhibitors. The inhibitors were diluted in PBS from their respective stock solution in DMSO (see Galectin-3 inhibitors) and used at final concentrations ranging from 0.04 to 40 μM. DMSO was adjusted to make the final DMSO concentration 0.2% for all inhibitor concentrations, including the control sample (no inhibitor). After 72 hours of treatment, 20 μl of 5 mg/ml MTT solution (in PBS) was added to each well and incubation continued for 1 hour at 37 °C. Thereafter, the MTT containing medium was removed and 100 μl of DMSO was added per well and the plates swirled gently for 10 minutes to dissolve the cells and the purple formazan product precipitate. Absorbance was monitored at 540 nm using a Labsystems iEMS Reader MF (Labsystems Oy, Helsinki, Finland) and the software DeltaSoft II v.4.14 (Biometallics Inc., Princeton, NJ, USA).
# MCF-7 cells = test: MTT cell viability assay, MCF-7; assay type: cell-based; conditions: MCF-7, 72 hours, 0.04–40 µM for 1 and 2, 0.04–20 µM for 3
# Experimental: as §1
# HCC1937 cells = test: MTT cell viability assay, HCC1937; assay type: cell-based; conditions: HCC1937, 72 hours, 0.04–40 µM for 1 and 2, 0.04–20 µM for 3
# Experimental: as §1
# BxPc-3 cells = test: MTT assay, BxPc-3 pancreatic cancer cells; assay type: cell-based; conditions: BxPc-3, 72 hours
# Experimental: (§2) The MTT (3-[4,5-dimethylthiazol-2-yl]−2,5-diphenyltetrazolium bromide) assays were performed as previously described. In brief, cells were seeded in 96-well plates (6000 cells/well for MCF-7 and HCC1937 and 5000 cells for JIMT-1 in 180 μl fully-supplemented medium as described under Cell culture). The cells were incubated for 24 hours before addition of galectin-3 inhibitors. The inhibitors were diluted in PBS from their respective stock solution in DMSO (see Galectin-3 inhibitors) and used at final concentrations ranging from 0.04 to 40 μM. DMSO was adjusted to make the final DMSO concentration 0.2% for all inhibitor concentrations, including the control sample (no inhibitor). After 72 hours of treatment, 20 μl of 5 mg/ml MTT solution (in PBS) was added to each well and incubation continued for 1 hour at 37 °C. […] Absorbance was monitored at 540 nm using a Labsystems iEMS Reader MF (Labsystems Oy, Helsinki, Finland) and the software DeltaSoft II v.4.14 (Biometallics Inc., Princeton, NJ, USA). […]
# (§3) Fluorescence anisotropy assay
# (§4) The affinity between inhibitor 1 and the carbohydrate recognition domain (CRD) of galectin-8C and between inhibitor 3 and the CRD of galectin-2, -4N, -4C, 8C, and -9C was determined using the fluorescence anisotropy assay described in the main article. […]
# MIA PaCa-2 cells = test: MTT assay, MIA PaCa-2 pancreatic cancer cells; assay type: cell-based; conditions: MIA PaCa-2, 72 hours
# Experimental: as §2, §3, §4
# [1] = system: animal models of idiopathic pulmonary fibrosis (IPF); parameters: method as in PMID 27356186, PMID 28055102; conditions: cited from earlier work
# [2] = system: pathological corneal neovascularization and fibrosis; parameters: method as in PMID 27356186, PMID 28055102; conditions: cited from earlier work
# [3] = Caco-2 permeability assay; conditions: human, Caco-2, pH 7.4
smiles,measurement,setting,value
OC[C@H]1O[C@@H](S[C@@H]2O[C@H](CO)[C@H](O)[C@H](n3cc(-c4cccc(F)c4)nn3)[C@H]2O)[C@H](O)[C@@H](n2cc(-c3cccc(F)c3)nn2)[C@H]1O [compound 1],cell viability (MTT),JIMT-1 cells,no apparent change in cell viability
same,cell viability (MTT),MCF-7 cells,no apparent change in cell viability
same,cell viability (MTT),HCC1937 cells,no apparent change in cell viability
same,toxicity (MTT),BxPc-3 cells,low toxicity
same,toxicity (MTT),MIA PaCa-2 cells,low toxicity
same,effect in animal models of idiopathic pulmonary fibrosis (IPF),[1],therapeutic effects
same,effect in pathological corneal neovascularization and fibrosis,[2],therapeutic effects
same,Papp A→B,[3],0.7 nm/s
same,Papp B→A,[3],0.5 nm/s
